Source: US10131652B2, “Pyrimidinyloxy benzene derivatives as herbicides” (E. I. DU PONT DE NEMOURS AND COMPANY, priority 2014, dated 2018)

Key:
Assay type in all cases: in vivo
[1] = tested on: barnyardgrass (Echinochloa crus-galli); assay: Test C flooded paddy test plant response; settings: Echinochloa crus-galli; Flood, 250 g ai/ha; scale of 0 to 100 where 0 is no effect and 100 is complete control; 13 to 15 days; read-out: Barnyardgrass plant response rating
Procedure, shortened: (§1)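 Greenhouse paddy assay, 13–15 days. Treatment into 3 cm floodwater over 2-leaf plants; visual 0–100 rating against controls.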

[2] = tested on: ducksalad (Heteranthera limosa); assay: Test C flooded paddy test plant response; settings: Heteranthera limosa; Flood, 250 g ai/ha; scale of 0 to 100 where 0 is no effect and 100 is complete control; 13 to 15 days; read-out: Ducksalad plant response rating
Procedure, shortened: as §1

rice (Oryza sativa) = assay: Test C flooded paddy test plant response; settings: Oryza sativa; Flood, 250 g ai/ha; scale of 0 to 100 where 0 is no effect and 100 is complete control; 13 to 15 days; read-out: Rice plant response rating
Procedure, shortened: as §1

[3] = tested on: small-flower umbrella sedge (Cyperus difformis); assay: Test C flooded paddy test plant response; settings: Cyperus difformis; Flood, 250 g ai/ha; scale of 0 to 100 where 0 is no effect and 100 is complete control; 13 to 15 days; read-out: Sedge, Umbrella plant response rating
Procedure, shortened: as §1

[4] = tested on: galium (catchweed bedstraw, Galium aparine); assay: Test D pre-/postemergence plant response; settings: Galium, pre-emergence, Preemergence, scale 0 to 100 (0 no effect, 100 complete control), read-out: Plant response rating, Galium
Procedure, shortened: (§2)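 Visual injury scoring (0–100) at 13 to 15 days in greenhouse. Preemergence sprays on seeded loam/sand; postemergence sprays on 1–4 leaf plants.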

[5] = tested on: velvetleaf (Abutilon theophrasti); assay: Test D pre-/postemergence plant response; settings: Abutilon theophrasti, pre-emergence, Preemergence, scale 0 to 100 (0 no effect, 100 complete control), read-out: Plant response rating, Velvetleaf
Procedure, shortened: as §2

corn (Zea mays) = assay: Test D pre-/postemergence plant response; settings: Zea mays, pre-emergence, Preemergence, scale 0 to 100 (0 no effect, 100 complete control)
Procedure, shortened: as §2

[6] = tested on: Italian ryegrass (Lolium multiflorum); assay: Test D pre-/postemergence plant response; settings: Lolium multiflorum, pre-emergence, Preemergence, scale 0 to 100 (0 no effect, 100 complete control), read-out: Plant response rating, Ryegrass, Italian
Procedure, shortened: as §2

[7] = tested on: winter wheat (Triticum aestivum); assay: Test D pre-/postemergence plant response; settings: Triticum aestivum, pre-emergence, Preemergence, scale 0 to 100 (0 no effect, 100 complete control), read-out: Plant response rating, Wheat
Procedure, shortened: as §2

[8] = tested on: lambsquarters (Chenopodium album); assay: Test D pre-/postemergence plant response; settings: Chenopodium album, pre-emergence, Preemergence, scale 0 to 100 (0 no effect, 100 complete control), read-out: Plant response rating, Lambsquarters
Procedure, shortened: as §2

[9] = tested on: oilseed rape (Brassica napus); assay: Test D pre-/postemergence plant response; settings: Brassica napus, pre-emergence, Preemergence, scale 0 to 100 (0 no effect, 100 complete control), read-out: Plant response rating, Oilseed Rape
Procedure, shortened: as §2

Work on FC(F)(F)c1nccc(-c2ccccc2Oc2ncc(Br)cn2)n1 [Compound 21, 4-[2-[(5-bromo-2-pyrimidinyl)oxy]phenyl]-2-(trifluoromethyl)pyrimidine] yielded a pest or weed control at 250 g/ha [1] of 0%, a pest or weed control at 250 g/ha [2] of 0% and a plant injury at 250 g/ha (rice (Oryza sativa)) of 0%. It also gave a pest or weed control at 250 g/ha [3] of 0%.
Molecule Cc1ccc(Oc2ncc(Cl)cn2)c(-c2ccc(C(F)(F)F)nc2)c1 [Compound 22, 5-chloro-2-[4-methyl-2-[6-(trifluoromethyl)-3-pyridinyl]phenoxy]pyrimidine] has a pest or weed control at 250 g/ha [1] of 0%, a pest or weed control at 250 g/ha [2] of 0% and a plant injury at 250 g/ha (rice (Oryza sativa)) of 0%. It also gave a pest or weed control at 250 g/ha [3] of 0%.
Work on Clc1ccc(-c2c(Cl)cccc2Oc2ncc(Cl)cn2)nc1 [Compound 23, 5-chloro-2-[3-chloro-2-(5-chloro-2-pyridinyl)phenoxy]pyrimidine] yielded a pest or weed control at 250 g/ha [1] of 0%, a pest or weed control at 250 g/ha [2] of 60% and a plant injury at 250 g/ha (rice (Oryza sativa)) of 0%. It also gave a pest or weed control at 250 g/ha [3] of 40%.
Cc1ccc(Oc2ncc(Cl)cn2)c(-c2ccnc(C(F)(F)F)c2)c1 [Compound 24, 5-chloro-2-[4-methyl-2-[2-(trifluoromethyl)-4-pyridinyl]phenoxy]pyrimidine] was tested, and the pest or weed control at 250 g/ha [1] was 0%, the pest or weed control at 250 g/ha [2] was 0% and the plant injury at 250 g/ha (rice (Oryza sativa)) was 0%. It also gave a pest or weed control at 250 g/ha [3] of 40%.
In the case of FC(F)(F)c1ccnc(-c2ccccc2Oc2ncc(Cl)cn2)c1 [Compound 25, 5-chloro-2-[2-[4-(trifluoromethyl)-2-pyridinyl]phenoxy]pyrimidine], the pest or weed control at 250 g/ha [1] is reported as 0%, the pest or weed control at 250 g/ha [2] is reported as 30% and the plant injury at 250 g/ha (rice (Oryza sativa)) is reported as 0%. It also gave a pest or weed control at 250 g/ha [3] of 20%.
FC(F)(F)c1ccc(-c2ccccc2Oc2ncc(Cl)cn2)nc1 [Compound 27, 5-chloro-2-[2-[5-(trifluoromethyl)-2-pyridinyl]phenoxy]pyrimidine] showed a pest or weed control at 250 g/ha [1] of 0%, a pest or weed control at 250 g/ha [2] of 30% and a plant injury at 250 g/ha (rice (Oryza sativa)) of 0%. For the same molecule, the pest or weed control at 250 g/ha [3] was 40%.
Molecule FCc1cc(-c2ccccc2Oc2ncc(Cl)cn2)no1 [Compound 32, 5-chloro-2-[2-[5-(fluoromethyl)-3-isoxazolyl]phenoxy]pyrimidine] has a pest or weed control at 8 g/ha ([4]; 8 g ai/ha) of 0%, a pest or weed control at 16 g/ha ([4]; 16 g ai/ha) of 25% and a pest or weed control at 31 g/ha ([4]; 31 g ai/ha) of 65%. It also gave a pest or weed control at 62 g/ha ([4]; 62 g ai/ha) of 75%, a pest or weed control at 8 g/ha ([5]; 8 g ai/ha) of 5% and a pest or weed control at 16 g/ha ([5]; 16 g ai/ha) of 40%. The pest or weed control at 31 g/ha ([5]; 31 g ai/ha) was 55%, the pest or weed control at 62 g/ha ([5]; 62 g ai/ha) was 85% and the Corn plant response rating (crop injury, 0 = no effect, 100 = complete kill) at 8 g/ha (corn (Zea mays); 8 g ai/ha) was 0%. The Corn plant response rating (crop injury, 0 = no effect, 100 = complete kill) at 16 g/ha (corn (Zea mays); 16 g ai/ha) was 0%, the Corn plant response rating (crop injury, 0 = no effect, 100 = complete kill) at 31 g/ha (corn (Zea mays); 31 g ai/ha) was 0% and the Corn plant response rating (crop injury, 0 = no effect, 100 = complete kill) at 62 g/ha (corn (Zea mays); 62 g ai/ha) was 0%. The pest or weed control at 8 g/ha ([6]; 8 g ai/ha) was 0%, the pest or weed control at 16 g/ha ([6]; 16 g ai/ha) was 0% and the pest or weed control at 31 g/ha ([6]; 31 g ai/ha) was 0%. The pest or weed control at 62 g/ha ([6]; 62 g ai/ha) was 10%, the plant injury at 8 g/ha ([7]; 8 g ai/ha) was 0% and the plant injury at 16 g/ha ([7]; 16 g ai/ha) was 0%. For the same molecule, the plant injury at 31 g/ha ([7]; 31 g ai/ha) was 0%, the plant injury at 62 g/ha ([7]; 62 g ai/ha) was 5% and the pest or weed control at 8 g/ha ([8]; 8 g ai/ha) was 95%. The pest or weed control at 16 g/ha ([8]; 16 g ai/ha) was 95%, the pest or weed control at 31 g/ha ([8]; 31 g ai/ha) was 98% and the pest or weed control at 62 g/ha ([8]; 62 g ai/ha) was 100%. The plant injury at 8 g/ha ([9]; 8 g ai/ha) was 50%, the plant injury at 16 g/ha ([9]; 16 g ai/ha) was 80% and the plant injury at 31 g/ha ([9]; 31 g ai/ha) was 100%. It also gave a plant injury at 62 g/ha ([9]; 62 g ai/ha) of 100%, a pest or weed control at 250 g/ha [1] of 0% and a pest or weed control at 250 g/ha [2] of 90%. It also gave a plant injury at 250 g/ha (rice (Oryza sativa)) of 20% and a pest or weed control at 250 g/ha [3] of 85%.
Molecule FC(F)(F)Oc1ccc(-c2ccccc2Oc2ncc(Cl)cn2)cc1 [Compound 42, 5-chloro-2-[[4′-(trifluoromethoxy)[1,1′-biphenyl]-2-yl]oxy]pyrimidine] has a pest or weed control at 250 g/ha [1] of 0%, a pest or weed control at 250 g/ha [2] of 0% and a plant injury at 250 g/ha (rice (Oryza sativa)) of 0%. For the same molecule, the pest or weed control at 250 g/ha [3] was 0%.
